Where two headings read alike, the source gives them in different places. Where a SMILES comes first, the peptide text is derived from it.
Assays:
[1] = system: E. coli ATCC 25922; format: cell-based, Escherichia coli
Protocol: (§1) Bacteria were grown overnight at 37° C. in Mueller-Hinton Broth (MHB; Sigma-Aldrich, St. Louis. MO, USA) in a shaking incubator and aliquoted into cryovials with a 50% glycerol solution in a 1:1 ratio. No additives were added to the MHB during the growth of bacterial isolates. Glycerol stocks were stored at −80° C.
(§2) The antimicrobial activity of the putative AMPs was determined by a broth microdilution assay as described by the Clinical and Laboratory Standards Institute, with the published adaptations for testing of cationic peptides. Escherichia coli 25922 and Staphylococcus aureus 29213 isolates were purchased from the American Type Culture Collection (ATCC; Manassas, VA, USA). A human clinical isolate of Salmonella enterica serovar Enteritidis was provided by the BC Centre for Disease Control. Bacteria from stocks stored at −80° C. were streaked onto nonselective Columbia blood agar with 5% sheep blood (Oxoid) and incubated overnight at 37° C. Next, 2-4 colonies were streaked onto a new agar plate to ensure uniform health of colonies used in the broth microdilution assay. Isolated colonies were suspended in MHB and the optical density was measured with a spectrophotometer to create an initial inoculum concentration of approximately 1×10^8 cfu/mL. The inoculum was diluted 1:250 to a final concentration of 2-8×10^5 cfu/mL, which was confirmed by performing a Total Viability Count (TVC). The TVC consisted of plating a 1:1000 dilution of the final inoculum on nonselective media and was also used to confirm the health and purity of the inoculum in each trial.
(§3) Lyophilized 80 μg peptide aliquots synthesized by GenScript (Piscataway, NJ, USA) were resuspended to 1.28 mg/mL with UltraPure water (Thermo Fisher Scientific, Waltham, MA, USA) and serially diluted in polypropylene 96-well microtiter plates (Greiner Bio-One #650261, Kremsmunster, Austria) from 128 down to 0.5 μg/mL. Two columns per plate were reserved for growth and sterility controls. Inoculum was added to the wells containing the peptide and the growth control. Plates were incubated for 20-24 h at 37° C. The minimum inhibitory concentration (MIC) was determined as the lowest peptide concentration where there was no visible bacterial growth.

[2] = system: Salmonella enterica serovar Enteritidis (human clinical isolate); format: cell-based
Protocol: as §1, §2, §3

[3] = system: S. aureus ATCC 29213; format: cell-based, Staphylococcus aureus
Protocol: as §1, §2, §3

[4] = serovar Enteritidis (human clinical isolate)
[5] = Table 14, first value of the cell, three independent experiments, highest concentration tested 128
[6] = Table 14, second value of the cell, three independent experiments, highest concentration tested 128
[7] = Table 14, third value of the cell, three independent experiments, highest concentration tested 128

MIC (ug/mL) E. coli ([1]; ATCC 25922)	MIC (ug/mL) S. Enteritidis [2, 4]	MIC (ug/mL) S. aureus ([3]; ATCC 29213)	Structure (SMILES)	MIC (ug/mL) E. coli [1, 5]	MIC (ug/mL) S. Enteritidis [2, 6]	MIC (ug/mL) S. aureus [3, 7]
>128/>128/>128 ug/mL	>128/>128/>128 ug/mL	>128/>128/>128 ug/mL	CC[C@H](C)[C@H](NC(=O)[C@H](CC(C)C)NC(=O)[C@H](CO)NC(=O)[C@H](CCCCN)NC(=O)[C@H](CC(C)C)NC(=O)[C@@H](NC(=O)[C@H](Cc1ccc(O)cc1)NC(=O)[C@H](CCCNC(=N)N)NC(=O)[C@H](CCCNC(=N)N)NC(=O)[C@H](Cc1c[nH]cn1)NC(=O)[C@H](CCCNC(=N)N)NC(=O)[C@H](CCC(=O)O)NC(=O)[C@H](Cc1c[nH]cn1)NC(=O)[C@H](CCCNC(=N)N)NC(=O)[C@H](CC(C)C)NC(=O)[C@H](CCCCN)NC(=O)[C@@H](NC(=O)[C@H](Cc1c[nH]cn1)NC(=O)[C@H](Cc1c[nH]cn1)NC(=O)[C@H](Cc1c[nH]cn1)NC(=O)[C@@H](N)CCCCN)[C@@H](C)CC)[C@@H](C)CC)C(=O)O [ApMe4] (H-KHHHIKLRHERHRRYILKSLI-OH; N-terminus and C-terminus assumed)	–	–	–
>128/>128/>128 ug/mL	>128/>128/>128 ug/mL	>128/>128/>128 ug/mL	N=C(N)NCCC[C@H](NC(=O)[C@H](CCCNC(=N)N)NC(=O)CNC(=O)[C@H](Cc1ccccc1)NC(=O)[C@@H]1CCCN1C(=O)[C@H](Cc1ccccc1)NC(=O)[C@@H]1CCCN1C(=O)[C@@H](N)Cc1ccccc1)C(=O)O [RaSi2, FPFPFGRR] (H-FPFPFGRR-OH; N-terminus and C-terminus assumed)	–	–	–
–	–	–	CC[C@H](C)[C@H](NC(=O)CNC(=O)[C@H](CO)NC(=O)[C@H](CC(C)C)NC(=O)[C@H](CC(C)C)NC(=O)CN)C(=O)N[C@@H](CC(C)C)C(=O)NCC(=O)N[C@@H](C)C(=O)NCC(=O)N[C@@H](CCCCN)C(=O)N[C@@H](CCCCN)C(=O)O [RaOm1, GLLSGILGAGKK] (H-GLLSGILGAGKK-OH; N-terminus and C-terminus assumed)	>128/>128/>128 ug/mL	>128/>128/>128 ug/mL	>128/>128/>128 ug/mL
>128/>128/>128 ug/mL	>128/>128/>128 ug/mL	>128/>128/>128 ug/mL	N=C(N)NCCC[C@H](NC(=O)[C@H](CCCNC(=N)N)NC(=O)[C@H](CO)NC(=O)[C@H](CCCNC(=N)N)NC(=O)[C@H](Cc1c[nH]cn1)NC(=O)[C@H](CO)NC(=O)[C@H](Cc1c[nH]c2ccccc12)NC(=O)[C@H](CCCNC(=N)N)NC(=O)[C@@H]1CCCN1C(=O)[C@@H](N)CCCNC(=N)N)C(=O)O [PeNi18, RPRWSHRSRR] (H-RPRWSHRSRR-OH; N-terminus and C-terminus assumed)	–	–	–
>128/>128/>128 ug/mL	>128/>128/>128 ug/mL	>128/>128/>128 ug/mL	CC[C@H](C)[C@H](NC(=O)[C@H](C)NC(=O)[C@H](Cc1ccccc1)NC(=O)[C@H](C)NC(=O)[C@H](C)NC(=O)[C@@H](N)C(C)C)C(=O)N[C@H](C(=O)NCC(=O)N[C@@H](CS)C(=O)N[C@@H](CC(C)C)C(=O)N[C@@H](CS)C(=O)N[C@@H](CS)C(=O)N[C@@H](CCCNC(=N)N)C(=O)N[C@@H](CCCNC(=N)N)C(=O)N1CCC[C@H]1C(=O)N[C@@H](CCCNC(=N)N)C(=O)N[C@@H](CCCNC(=N)N)C(=O)O)[C@@H](C)CC [PoRo1, VAAFAIIGCLCCRRPRR] (H-VAAFAIIGCLCCRRPRR-OH; N-terminus and C-terminus assumed)	–	–	–
>128/>128/>128 ug/mL	>128/>128/>128 ug/mL	>128/>128/>128 ug/mL	CC(C)C[C@H](NC(=O)[C@H](CCCCN)NC(=O)[C@H](CCCCN)NC(=O)[C@H](CC(C)C)NC(=O)[C@@H](NC(=O)[C@H](Cc1ccc(O)cc1)NC(=O)[C@@H](NC(=O)CNC(=O)[C@H](CCC(=O)O)NC(=O)[C@H](CC(N)=O)NC(=O)[C@H](Cc1c[nH]c2ccccc12)NC(=O)[C@@H]1CCCN1C(=O)[C@H](CO)NC(=O)[C@H](CO)NC(=O)[C@@H]1CCCN1C(=O)[C@H](CC(C)C)NC(=O)[C@@H](N)Cc1ccccc1)[C@@H](C)O)C(C)C)C(=O)N[C@@H](CCCCN)C(=O)N[C@@H](CO)C(=O)O [PeNi15, FLPSSPWNEGTYVLKKLKS] (H-FLPSSPWNEGTYVLKKLKS-OH; N-terminus and C-terminus assumed)	–	–	–
>128/>128/>128 ug/mL	>128/>128/>128 ug/mL	>128/>128/>128 ug/mL	CC(C)[C@H](N)C(=O)N[C@@H](CCCCN)C(=O)N[C@@H](CS)C(=O)N[C@@H](CCCNC(=N)N)C(=O)N[C@H](C(=O)N[C@@H](CCCNC(=N)N)C(=O)N[C@@H](CCCNC(=N)N)C(=O)O)C(C)C [ApMe1, VKCRVRR] (H-VKCRVRR-OH; N-terminus and C-terminus assumed)	–	–	–
>128/>128/>128 ug/mL	>128/>128/>128 ug/mL	>128/>128/>128 ug/mL	CC(C)C[C@H](NC(=O)[C@H](Cc1ccccc1)NC(=O)[C@H](CC(C)C)NC(=O)[C@H](CCCCN)NC(=O)[C@H](Cc1c[nH]cn1)NC(=O)[C@@H](NC(=O)[C@H](Cc1ccccc1)NC(=O)[C@H](CO)NC(=O)[C@H](CC(C)C)NC(=O)[C@@H](NC(=O)[C@H](C)N)C(C)C)C(C)C)C(=O)N[C@@H](CC(N)=O)C(=O)N[C@@H](Cc1ccccc1)C(=O)N[C@@H](CC(C)C)C(=O)N[C@@H](Cc1c[nH]cn1)C(=O)N[C@H](C(=O)N[C@@H](CC(=O)O)C(=O)N[C@H](C(=O)N[C@@H](CO)C(=O)N[C@@H](CCCCN)C(=O)NCC(=O)N[C@@H](CCCCN)C(=O)N[C@@H](CS)C(=O)N[C@@H](CCCNC(=N)N)C(=O)N[C@@H](C)C(=O)N[C@H](C(=O)N[C@@H](CC(C)C)C(=O)N[C@@H](CCC(N)=O)C(=O)O)[C@@H](C)O)[C@@H](C)O)C(C)C [TeRu3] (H-AVLSFVHKLFLNFLHVDTSKGKCRATLQ-OH; N-terminus and C-terminus assumed)	–	–	–
>128/>128/>128 ug/mL	>128/>128/>128 ug/mL	>128/>128/>128 ug/mL	CC[C@H](C)[C@H](NC(=O)[C@H](CCCCN)NC(=O)[C@H](CCCNC(=N)N)NC(=O)[C@H](C)NC(=O)[C@@H](N)CCCNC(=N)N)C(=O)N[C@@H](CCCNC(=N)N)C(=O)N[C@@H](CCCNC(=N)N)C(=O)N[C@@H](CCCNC(=N)N)C(=O)N[C@@H](CCCNC(=N)N)C(=O)NCC(=O)N[C@@H](CO)C(=O)N[C@@H](CC(C)C)C(=O)N[C@@H](CCCNC(=N)N)C(=O)N[C@@H](Cc1c[nH]cn1)C(=O)N[C@@H](CS)C(=O)N[C@H](C(=O)N[C@H](C(=O)N[C@H](C(=O)N1CCC[C@H]1C(=O)N[C@@H](CO)C(=O)N[C@H](C(=O)N1CCC[C@H]1C(=O)N[C@@H](CO)C(=O)NCC(=O)N[C@@H](CCCNC(=N)N)C(=O)O)[C@@H](C)O)[C@@H](C)CC)[C@@H](C)O)C(C)C [ApMe6] (H-RARKIRRRRGSLRHCVTIPSTPSGR-OH; N-terminus and C-terminus assumed)	–	–	–
–	–	–	CC[C@H](C)[C@H](NC(=O)CNC(=O)[C@H](CO)NC(=O)[C@@H](NC(=O)[C@H](CC(C)C)NC(=O)CN)[C@@H](C)CC)C(=O)N[C@@H](CC(C)C)C(=O)NCC(=O)N[C@@H](C)C(=O)NCC(=O)N[C@@H](CCCCN)C(=O)N[C@@H](CCCCN)C(=O)O [OdMa8, GLISGILGAGKK] (H-GLISGILGAGKK-OH; N-terminus and C-terminus assumed)	>128/>128/>128 ug/mL	>128/>128/>128 ug/mL	>128/>128/>128 ug/mL
>128/>128/>128 ug/mL	>128/>128/>128 ug/mL	>128/>128/>128 ug/mL	CC[C@H](C)[C@H](NC(=O)[C@H](CO)NC(=O)[C@@H](NC(=O)[C@@H](NC(=O)[C@@H](N)C(C)C)[C@@H](C)O)[C@@H](C)CC)C(=O)N[C@@H](C)C(=O)N[C@@H](CCCNC(=N)N)C(=O)N[C@@H](CCCNC(=N)N)C(=O)N[C@H](C(=O)N[C@@H](CO)C(=O)N[C@@H](CO)C(=O)N[C@@H](Cc1c[nH]cn1)C(=O)N[C@@H](CCCCN)C(=O)N[C@@H](CCCNC(=N)N)C(=O)NCC(=O)O)C(C)C [BoAr5, VTISIARRVSSHKRG] (H-VTISIARRVSSHKRG-OH; N-terminus and C-terminus assumed)	–	–	–

Reference: patent US20260242416A1, “ANTIMICROBIAL PEPTIDES” (priority 2023, published 2026)
